Measurements published in article PMC5655693, “Conformational stabilization as a strategy to prevent nucleophosmin mislocalization in leukemia” (Scientific Reports, 2017).

Assays:
Nucleophosmin (NPM) [1] = biological target: T1, Nucleophosmin (NPM) (Homo sapiens, UniProt P06748); test: SPR steady state ([…] model, S0.[…] ≈ KD); DSF ΔTm […] °C at […] with C-terminal domain; Trp fluorescence unfolding; assay type: binding
T1 construct: gene NPM1; full-length NPM (SPR); C-terminal domain residues 243–294 (DSF)
T1 sequence (P06748 whole entry, the tested form may be a part): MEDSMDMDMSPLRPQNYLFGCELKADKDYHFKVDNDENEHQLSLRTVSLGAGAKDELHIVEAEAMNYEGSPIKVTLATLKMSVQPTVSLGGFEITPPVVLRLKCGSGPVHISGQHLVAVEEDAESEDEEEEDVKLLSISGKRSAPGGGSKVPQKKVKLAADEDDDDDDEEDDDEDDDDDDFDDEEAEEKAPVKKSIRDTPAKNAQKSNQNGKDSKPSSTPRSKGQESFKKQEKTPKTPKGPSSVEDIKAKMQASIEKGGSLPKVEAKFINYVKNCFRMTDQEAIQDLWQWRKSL

Nucleophosmin (NPM) [2] = biological target: T1, Nucleophosmin (NPM); test: SPR steady state ([…] model, S0.[…] ≈ KD); DSF ΔTm […] °C at […] with C-terminal domain; assay type: binding

| Compound | Kd (Nucleophosmin (NPM) [1]) | Kd (Nucleophosmin (NPM) [2]) |
| --- | --- | --- |
| CC1=C(C(=O)Nc2ccc(Br)cn2)C(c2ccccn2)C2=C(CC(c3ccccc3)CC2=O)N1 (centres unmarked) [C1] | 68 ± 13 µM | – |
| Cc1ccc(-n2c(SCC(=O)Nc3ccc4c(c3)OCCO4)nc3ccccc3c2=O)cc1 [C3] | – | 102 ± 23 µM |
